From patent US20140106967A1, “AUXIN PLANT GROWTH REGULATORS” (The Governors of The University of Alberta, priority 2011, published 2014)

Tests used:
[1] = tested on: 'Harvest HRS'-Spring hard-red wheat; assay: Wheat growth chamber experiment, with or without heat stress (Tables W2, W3); assay type: in vivo, Triticum aestivum
Procedure: In another experiment, seeds of the wheat cultivar Harvest HRS were planted at an approximate depth of 1.5 cm in 5 inch square plastic pots (6 inch pot depth; 3 seeds per pot) in 1:1 Sunshine #4 potting mix (Sun Gro Horticulture, Vancouver, Canada) and sand. The seedlings were thinned to one seedling per pot approximately 2 weeks after seeding. Plants were grown in a Conviron growth chamber maintained at 24° C. light/20° C. dark (16 hours light/8 hours dark photoperiod; using 54W/835/HO high fluorescent bulbs [Phillips, Holland] with an average photon flux density of 540 μE m^−2s^−2. Plant were fertilized with 175 ppm 20-20-20 (N:P:K) every 3 to 4 days.
Aqueous solutions of 4-ME-IAA at 1×10^−6, 1×10^−5, or 1×10^−4 M in 0.1% (v/v) Tween 80 or a control solution (0.1% [v/v] Tween 80) were applied (sprayed on plant to cover) when the majority of the plants were at the BBCH scale 45 developmental stage (late boot stage where the flag leaf sheath [boot] is swollen with the inflorescence, but the inflorescence has not emerged from the boot). The experiment was arranged in a completely randomized design within the growth chamber.
The heat stress treatment was imposed by moving plants to receive the heat stress to a different growth chamber ((heat stress chamber) for 6 days. In the heat stress chamber, the light cycle began at 7:00 hours at a 24° C. air temperature. The heat treatment began at 11:00 hours (33° C. air temperature) and was maintained for 6 hours (until 17:00 hours). Following the heat treatment, the remainder of the light cycle was maintained at a 24° C. air temperature. The dark cycle (began at 23:00 hours) was maintained at 20° C. The photoperiod was 16 h light/8 h dark at an average photon flux density of 492 μE m^−2s^−2 using 54W/835/HO high fluorescent bulbs (Phillips, Holland). After 6 days, the heat stress-treated plants were returned to the original growth chamber maintained at non-heat stress conditions to develop to maturity.

[2] = tested on: PsGA20ox1, PsGA3ox1, PsGA2ox1; assay: GA biosynthesis/catabolism gene expression in pea pericarp; assay type: in vivo, Pisum sativum; settings: 24 h treatment period
Procedure: During early pea fruit growth, the physiological roles of 4-chloroindole-3-acetic acid (4-Cl-IAA) and IAA, both natural pea auxins, in regulating gibberellin (GA) 20-oxidase gene expression (PsGA20ox1) were tested with 4-position, ring-substituted auxins that have a range of biological activities (fruit growth). The effect of seeds, and natural and synthetic auxins (4-Cl-IAA, and IAA; 4-Me-IAA, 4-Et-IAA and 4-F-IAA, respectively), and auxin concentration (4-Cl-IAA) on PsGA20ox1 mRNA levels in pea pericarp were investigated over a 24 h treatment period. The ability of certain 4-substituted auxins to increase PsGA20ox1 mRNA levels in deseeded pericarp was correlated with their ability to stimulate pericarp growth.

[3] = 1×10^−4 M, 6 days of heat stress (33° C. 6 h/day)
[4] = 1×10^−5 M, 6 days of heat stress (33° C. 6 h/day)
[5] = 1×10^−6 M, 6 days of heat stress (33° C. 6 h/day)

Cc1cccc2[nH]cc(CC(=O)O)c12 [4-ME-IAA, 4-methyl-indole-3-acetic acid]
Length of spike peduncle [1, 3]: 70 ± 10 mm
Number of spikes per plant [1, 3]: 25 ± 3
Seed number per plant [1, 3]: 130 ± 23
Seed number per spike [1, 3]: 5 ± 1
Seed weight per plant [1, 3]: 4.08 ± 0.67 g
increase in seed number per plant vs control ([1]; 1×10^−4 M, heat stress): 73%
increase in seed weight per plant vs control ([1]; 1×10^−4 M, heat stress): 72%
Length of spike peduncle ([1]; 1×10^−4 M, non-heat stress): 62 ± 5 mm
Number of spikes per plant ([1]; 1×10^−4 M, non-heat stress): 25 ± 1
Seed number per plant ([1]; 1×10^−4 M, non-heat stress): 163 ± 32
Seed number per spike ([1]; 1×10^−4 M, non-heat stress): 7 ± 1
Seed weight per plant ([1]; 1×10^−4 M, non-heat stress): 4.87 ± 0.95 g
Length of spike peduncle [1, 4]: 57 ± 5 mm
Number of spikes per plant [1, 4]: 24 ± 4
Seed number per plant [1, 4]: 57 ± 18
Seed number per spike [1, 4]: 3 ± 1
Seed weight per plant [1, 4]: 1.83 ± 0.57 g
Length of spike peduncle ([1]; 1×10^−5 M, non-heat stress): 82 ± 7 mm
Number of spikes per plant ([1]; 1×10^−5 M, non-heat stress): 22 ± 3
Seed number per plant ([1]; 1×10^−5 M, non-heat stress): 256 ± 42
Seed number per spike ([1]; 1×10^−5 M, non-heat stress): 12 ± 1
Seed weight per plant ([1]; 1×10^−5 M, non-heat stress): 7.56 ± 1.36 g
Length of spike peduncle [1, 5]: 72 ± 7 mm
Number of spikes per plant [1, 5]: 28 ± 3
Seed number per plant [1, 5]: 151 ± 43
Seed number per spike [1, 5]: 5 ± 1
Seed weight per plant [1, 5]: 4.49 ± 1.25 g
increase in number of floral spikes per plant vs control ([1]; 1×10^−6 M, heat stress): 40%
increase in seed number per plant vs control ([1]; 1×10^−6 M, heat stress): 101%
increase in seed weight per plant vs control ([1]; 1×10^−6 M, heat stress): 90%
Length of spike peduncle ([1]; 1×10^−6 M, non-heat stress): 63 ± 6 mm
Number of spikes per plant ([1]; 1×10^−6 M, non-heat stress): 24 ± 3
Seed number per plant ([1]; 1×10^−6 M, non-heat stress): 254 ± 81
Seed number per spike ([1]; 1×10^−6 M, non-heat stress): 10 ± 2
Seed weight per plant ([1]; 1×10^−6 M, non-heat stress): 8.17 ± 2.66 g
PsGA20ox1 mRNA levels in deseeded pericarp [2]: second most active auxin
